Test [1] concerns the target T1, Trifunctional purine biosynthetic protein adenosine-3 (Mus musculus, UniProt Q64737).
T1 sequence (Q64737 whole entry): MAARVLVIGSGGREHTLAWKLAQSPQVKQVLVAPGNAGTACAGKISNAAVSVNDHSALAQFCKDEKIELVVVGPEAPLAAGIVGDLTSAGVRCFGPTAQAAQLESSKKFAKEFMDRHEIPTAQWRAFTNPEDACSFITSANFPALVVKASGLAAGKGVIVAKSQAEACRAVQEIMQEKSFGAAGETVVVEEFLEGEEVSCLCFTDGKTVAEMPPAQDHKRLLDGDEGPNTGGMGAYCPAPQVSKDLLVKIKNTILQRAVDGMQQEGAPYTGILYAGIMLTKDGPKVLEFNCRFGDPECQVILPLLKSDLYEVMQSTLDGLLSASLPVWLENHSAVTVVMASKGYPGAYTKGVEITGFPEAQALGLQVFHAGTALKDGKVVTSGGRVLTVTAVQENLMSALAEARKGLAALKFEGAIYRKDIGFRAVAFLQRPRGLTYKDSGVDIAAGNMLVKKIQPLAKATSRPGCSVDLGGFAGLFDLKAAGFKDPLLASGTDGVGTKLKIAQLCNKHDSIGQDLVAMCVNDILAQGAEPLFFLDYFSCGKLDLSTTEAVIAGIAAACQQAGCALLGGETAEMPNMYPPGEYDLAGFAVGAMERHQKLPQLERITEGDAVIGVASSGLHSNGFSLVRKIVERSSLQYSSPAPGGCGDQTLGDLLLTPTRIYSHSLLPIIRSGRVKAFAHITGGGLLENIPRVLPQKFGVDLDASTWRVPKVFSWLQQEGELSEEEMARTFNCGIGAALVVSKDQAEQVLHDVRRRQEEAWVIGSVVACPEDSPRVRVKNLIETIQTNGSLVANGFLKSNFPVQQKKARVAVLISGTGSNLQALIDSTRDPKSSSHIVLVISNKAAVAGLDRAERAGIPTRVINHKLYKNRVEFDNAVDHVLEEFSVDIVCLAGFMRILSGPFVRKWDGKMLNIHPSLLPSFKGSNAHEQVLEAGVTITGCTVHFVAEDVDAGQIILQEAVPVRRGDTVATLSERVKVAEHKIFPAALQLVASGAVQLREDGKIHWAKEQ
Nature of the test: Tested for the inhibition of trifunctional Glycinamide ribonucleotide formyltransferase isolated from murine L1210 cells. The test is classed as functional.

A further test relates to CCRF-CEM. Nature of the test: Tested for the growth inhibition of CCRF-CEM, a human T-cell derived lymphoblastic leukemic cell line. The format is functional, cell-based.
The target in test [2] is T2, Trifunctional purine biosynthetic protein adenosine-3 (Homo sapiens, UniProt P22102).
T2 sequence (P22102 whole entry): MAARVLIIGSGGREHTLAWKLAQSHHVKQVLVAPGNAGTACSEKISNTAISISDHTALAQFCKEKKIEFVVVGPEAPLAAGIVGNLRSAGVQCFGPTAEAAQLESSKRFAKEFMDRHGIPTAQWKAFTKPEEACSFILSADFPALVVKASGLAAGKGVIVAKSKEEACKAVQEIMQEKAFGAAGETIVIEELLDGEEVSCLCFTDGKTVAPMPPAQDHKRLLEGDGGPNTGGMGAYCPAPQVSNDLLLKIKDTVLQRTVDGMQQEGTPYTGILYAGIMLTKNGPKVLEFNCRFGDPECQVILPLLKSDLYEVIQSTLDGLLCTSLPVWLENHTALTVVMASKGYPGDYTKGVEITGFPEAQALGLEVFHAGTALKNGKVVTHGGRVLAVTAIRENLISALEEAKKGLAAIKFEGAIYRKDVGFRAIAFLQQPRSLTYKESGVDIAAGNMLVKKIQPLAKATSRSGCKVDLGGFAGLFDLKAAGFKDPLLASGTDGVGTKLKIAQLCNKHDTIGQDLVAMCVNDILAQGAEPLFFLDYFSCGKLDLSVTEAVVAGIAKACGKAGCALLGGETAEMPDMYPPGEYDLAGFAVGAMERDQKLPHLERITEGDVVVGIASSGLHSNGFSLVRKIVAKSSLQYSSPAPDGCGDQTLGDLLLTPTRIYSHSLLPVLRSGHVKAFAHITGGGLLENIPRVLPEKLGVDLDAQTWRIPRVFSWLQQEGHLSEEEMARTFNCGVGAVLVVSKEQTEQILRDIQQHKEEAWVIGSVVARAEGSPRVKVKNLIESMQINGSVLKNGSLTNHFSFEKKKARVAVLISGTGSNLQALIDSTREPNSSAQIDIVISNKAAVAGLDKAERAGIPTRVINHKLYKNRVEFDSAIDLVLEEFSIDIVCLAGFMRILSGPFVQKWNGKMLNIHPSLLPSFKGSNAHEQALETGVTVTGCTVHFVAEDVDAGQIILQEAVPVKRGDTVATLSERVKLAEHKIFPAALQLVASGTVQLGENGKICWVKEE
Nature of the test: Tested for the inhibition of recombinant human monofunctional Glycinamide ribonucleotide formyltransferase.

Structures are written as SMILES. Converted amounts (≈) assume the structure as drawn.

Usually Ki stands for a dissociation constant, usually derived from enzyme kinetics or from competition with a known ligand. Consider `Nc1nc2c(c(=O)[nH]1)C[C@@H](CCc1ccc(C(=O)N[C@@H](CCC(=O)O)C(=O)O)cc1)CN2` [LOMETREXOL], for which the affinity in test [1] corresponds to a Ki of 0.12 µM.

As usually defined, the IC50 is the concentration that inhibits the measured activity by half. Low values mean greater potency, high ones weaker potency. On to `O=C(O)CC[C@H](NC(=O)c1ccc(CCC2CNc3ncnc(O)c3C2)cc1)C(=O)O` (stereo partly specified), for which, in the test with CCRF-CEM, the half-inhibitory concentration (IC50) is greater than 20000 ng/mL. For the same molecule, the results for the inhibition constant Ki in test [1] and in test [2] were 27 µM and 82.1 µM, respectively.

With `Nc1ncc2c(n1)NCC(CCc1ccc(C(=O)N[C@@H](CCC(=O)O)C(=O)O)cc1)C2` (stereo partly specified), half-maximal inhibition in the test on CCRF-CEM (IC50) required 4 ng/mL (≈ 9.36 nM). In addition, the Ki in test [2] was 186 µM.
